Experimental findings from US10828436B2, “Administering the noble gas argon during cardiopulmonary resuscitation” (Vanderbilt University, priority 2016, dated 2020) are described below.

In experiment [1] the test system is rat isolated hearts. In words: Rat isolated hearts, 30 min global no-flow ischemia and 120 min reperfusion. The conditions noted are these: for defibrillation by lidocaine administration required to convert back to sinus rhythm: vs control hearts, P<0.05. The source says:
(§1) In one example, in-vivo experiments included a systematic study of the effect of Argon administered during CPR in a pig model of cardiac arrest on cardiac and neurological function, histological and other molecular effects after ROSC including 24- or 48 hr survival studies. […] Other examples include cell culture (in vitro) and isolated heart (ex vivo) experiments. The in vitro experiments include a systematic study of the effect of Argon administered on reoxygenation after prolonged hypoxia on markers of cellular injury and cell death in cardiomycytes and neuronal cell cultures. The ex vivo experiments include a systematic study of the effect of Argon administered on reperfusion after global coronary ischemia on coronary and myocardial function and infarct size in rat isolated hearts.

Experiment [2] concerns rat isolated lungs. In words: Rat isolated lungs, pulmonary vascular resistance under different gas mixtures. Here is the method:
Rat isolated lungs ventilated with either 65% N2 or 65% Argon plus 30% O2 and 5% CO2 and perfused at a rate of 40 mL/kg body weight with physiological salt solution plus 4% albumin via cannulas placed into the pulmonary artery (PA) and left atrium. PA pressure is recorded throughout the experiment and analyzed to determine the effect of different gas mixtures on the pulmonary vascular resistance. Argon led to a reversible 28% drop in pulmonary perfusion pressure at constant flow compared to ventilation with Nitrogen before and after. P<0.05*vs Nitrogen, † vs Argon.

For experiment [3], the system named is pig model of cardiac arrest. The experiment in a line: Pig model of cardiac arrest and CPR with Argon/O2 given during CPR before ROSC. Format: in vivo. Here is the method: Argon treatment led to higher systemic pulse pressures (arterial pressure during compression minus pressure during decompression), a lower number of defibrillation attempts and epinephrine requirements to achieve ROSC, a higher ROSC rate, lower lactic acidosis upon ROSC and lower cardiac injury markers (CK-MB and Troponin I) 6 hours after ROSC.
as §1, with “hearts. […]” for “hearts.”

The test system of experiment [4] is coronary artery endothelial cells. In words: Hypoxia/reoxygenation in isolated cells, LDH injury marker. Format: cell-based, human. The conditions noted are these: Argon for 10 min or 30 min upon reoxygenation after hypoxia, vs control HR with nitrogen. How it is done: (§2) These experiments show no evidence that Argon, given for 10 min or 30 min upon reoxygenation (R) after hypoxia (H), directly improves the cellular injury marker lactate dehydrogenase (LDH) compared to control HR with nitrogen.

Experiment [5] deals with human cardiomyocytes. Described as above. Conditions: Argon for 10 min or 30 min upon reoxygenation after hypoxia, vs control HR with nitrogen. Format: cell-based. How it is done:
as §2, §1

Setting [6] is: 65% Argon for 10 or 120 min of reperfusion vs 65% Nitrogen.
The mark [7] stands for this setting: gas mixture given during CPR, pigs.

In the case of `[Ar]` [Argon, argon], in experiment [1] (setting [6]), the “coronary or myocardial function (diastolic and developed left ventricular pressure, coronary flow)” value is “no evidence of improved”; the infarct size result is “no evidence of improved”. Further, the “defibrillation by lidocaine administration required to convert back to sinus rhythm” value in experiment [1] was “significantly less”. Besides, the “defibrillation by lidocaine administration required to convert back to sinus rhythm” value in experiment [1] (listed as 70% Argon) is “less”. The “drop in pulmonary perfusion pressure at constant flow” value in experiment [2] (65% Argon plus 30% O2 and 5% CO2, reversible, vs ventilation with Nitrogen before and after) worked out at 28%. In addition, the “pulmonary artery pressure at constant flow” value in experiment [2] (isolated lungs, in words) was “lower”. In experiment [3] (CPR with 70% Argon, compared to control animals without Argon during CPR, in words), the outcome parameters is given as “much improved”. The “systemic pulse pressures (arterial pressure during compression minus pressure during decompression)” value in experiment [3] (during CPR, vs Nitrogen/O2, in words) is listed as “higher”. In experiment [3] (setting [7]), the “Arterial pH upon ROSC” value is given as 7.27 ± 0.05, the “CK-MB 6 hrs after ROSC” value is 15.2 ± 4.3 ng/mL, the “Epinephrine dose to achieve ROSC” value is on record as 0.7 ± 0.2 mg and the “Lactate upon ROSC” value was 6.8 ± 0.7 mEq. In experiment [3] (setting [7]), the “Number of defibrillations to achieve ROSC” value was found to be 2.4 ± 1.0 n, the “Pulse pressure at 3 min CPR” value was 62.3 ± 3.7 mmHg, the ROSC is 100% and the “Troponin I 6 hrs after ROSC” value is recorded as 6.8 ± 4.7 ng/mL. Moreover, in experiment [3] (vs Nitrogen/O2, in words), the ROSC rate entry is listed as “higher”; the “cardiac injury markers (CK-MB and Troponin I) 6 hours after ROSC” value is “lower”; the “epinephrine requirements to achieve ROSC” value is “lower”; the “lactic acidosis upon ROSC” value is “lower”. Moreover, the “number of defibrillation attempts to achieve ROSC” value in experiment [3] (vs Nitrogen/O2, in words) is listed as “lower”. Besides, the “number of defibrillation attempts to achieve ROSC” value in experiment [3] (vs Nitrogen/O2, in words, listed as 70% Argon) is “less”. The “improvement of cellular injury marker lactate dehydrogenase (LDH)” value in experiment [4] is reported as “no evidence”. The “improvement of cellular injury marker lactate dehydrogenase (LDH)” value in experiment [5] is “no evidence”.
